# From US20100016221A1, “METHOD OF DEGRADING PROTEIN BY CHAPERONE-MEDIATED AUTOPHAGY” (RIKEN, priority 2008, published 2010)
# “Also recorded” adds a separate entry of the source. Ends that are not written are not given here.
# Columns and labels:
# tNhtt-62Q-kikGR protein = molecular target: T1, tNhtt-62Q-kikGR protein (Homo sapiens, UniProt P42858, INS38QQQQQQQQQQQQQQQQQQQQQQQQQQQQQQQQQQQQQQQQQ); assay: Chase experiment in tNhtt-62Q-kikGR Neuro2a cells after photo-cleavage; assay type: cell-based; conditions: twelve hours after irradiation
# T1 construct: inserting the htt exon 1 with 62Q (HD62); monomeric KikGR (mKikGR; KikGR BAD95669 with A17S, G32R, I37T, N39T, C116T, V126T, N161E, Q167E, H219Y, L222T, P223Y) (C); expressed in transfected cells; host or cells: Neuro2a/FRT/TR cells (Flp-in/T-Rex), doxycycline induced
# T1 sequence (P42858 with tags, fused parts or gaps with the stated changes): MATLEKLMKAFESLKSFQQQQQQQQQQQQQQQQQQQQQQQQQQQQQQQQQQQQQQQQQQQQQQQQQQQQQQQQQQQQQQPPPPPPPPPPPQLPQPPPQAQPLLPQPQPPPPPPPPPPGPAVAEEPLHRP
# Description: Mouse neuroblastoma (Neuro2a) cells were maintained in Dulbecco's modified Eagle's medium (Sigma) supplemented with 10% heat-inactivated fetal bovine serum (Sigma), 100 U/ml penicillin and 100 μg/ml streptomycin (Invitrogen) at 37° C. in an atmosphere containing 5% CO2 and 95% air. Establishment of stable Neuro2a cell lines with the ecdysone-inducible mammalian expression system (Invitrogen), that express tNhtt-EGFP-16Q (16Q Neuro2a cells), tNhtt-EGFP-150Q (150Q Neuro2a cells) and tNhtt-EGFP-150Q-nls (150Q-nls Neuro2a cells) has been described earlier (T. Nagai et al., supra, H. Doi et al., supra, E. A. Zemskov et al., J Neurochem. 87, 2 (2003)). […]
# Neuro2a tNhtt-62Q-kikGR cells were induced for 24 hours, and then the 62Q-kikGR was cleaved by 5 minutes irradiation of the cells. Chase phase lasted for 12 hours before the cells were collected and analyzed.
# (§1) Cells were washed twice with ice-cold PBS, scraped, and resuspended in lysis buffer (0.5% Triton X-100 in PBS, 0.5 mM phenylmethylsulfonyl fluoride, Complete protease inhibitor mixture (Roche Applied Sciences)). […] Immunoreactive proteins were detected with enhanced chemiluminescence reagents (Amersham Biosciences). […]
# [1] = system: polyQ inclusions in 150Q Neuro2a cells; assay: Confocal imaging of tested constructs in 150Q Neuro2a cells; assay type: cell-based, mouse
# Description: (§2) Mouse neuroblastoma (Neuro2a) cells were maintained in Dulbecco's modified Eagle's medium (Sigma) supplemented with 10% heat-inactivated fetal bovine serum (Sigma), 100 U/ml penicillin and 100 μg/ml streptomycin (Invitrogen) at 37° C. in an atmosphere containing 5% CO2 and 95% air. Establishment of stable Neuro2a cell lines with the ecdysone-inducible mammalian expression system (Invitrogen), that express tNhtt-EGFP-16Q (16Q Neuro2a cells), tNhtt-EGFP-150Q (150Q Neuro2a cells) and tNhtt-EGFP-150Q-nls (150Q-nls Neuro2a cells) has been described earlier (T. Nagai et al., supra, H. Doi et al., supra, E. A. Zemskov et al., J Neurochem. 87, 2 (2003)). Neuro2a cells were differentiated with 5mM dbcAMP (N^6, 2′-O-dibutyryladenosine-3′,5′-cyclic monophosphate sodium salt) (Nacalai Tesque) and induced to express tNhtt-polyQ with 2 μM ponasterone A (ponA; Invitrogen) for indicated times. Neuro2a/FRT/TR cell line was generated as described in the protocol for Flp-in/T-Rex system (Invitrogen). Neuro2a tNhtt-62Q-kikGR cell line was generated by transfecting Neuro2a/FRT/TR cells with the pFRT-HD62-KikGR and pOG44 (Invitrogen) constructs using Lipofectamine 2000 reagent and selected with 200 μg/ml hygromycin. The expression of the pFRT-tNhtt-62Q-KikGR was induced by 18 doxycycline treatment of the cells. For the photo-induced kikGR cleavage, cells were exposed to ˜400 nm wavelength for 5 minutes. […]
# [2] = molecular target: T2, soluble tNhtt-60Q protein (Homo sapiens, UniProt P42858, INS38QQQQQQQQQQQQQQQQQQQQQQQQQQQQQQQQQQQQQQQ); assay: Chase experiment in 60Q Neuro2a cells (Western blot); assay type: cell-based; conditions: after 24 hours chase
# T2 construct: N-terminal fragment of human huntington exon 1 (tNhtt) encoding 60 CAG repeats; expressed in transfected cells; host or cells: 60Q Neuro2a cells (mouse neuroblastoma), ponasterone A induced
# T2 sequence (P42858 with tags, fused parts or gaps with the stated changes): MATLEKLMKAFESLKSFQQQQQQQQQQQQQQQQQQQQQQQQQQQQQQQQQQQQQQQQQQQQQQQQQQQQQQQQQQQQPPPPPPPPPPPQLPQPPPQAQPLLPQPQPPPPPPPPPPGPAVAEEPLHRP
# Description: (§3) To determine whether tNhtt-polyQ degrades faster in the presence of RHQ, chase experiments were performed. Neuro2a were first induced to express tNhtt-polyQ for 20 hrs in case of 60Q and 12 hrs in case of 150Q cells and then transfected with the tested constructs. Four hours later, ponaA was removed; cells were washed with PBS and incubated in the medium containing dbcAMP (for differentiation) for 24 hrs. Cells were lysed and the levels of tNhtt-polyQ were analyzed by Western blotting.
# (§4) Cells were washed twice with ice-cold PBS, scraped, and resuspended in lysis buffer (0.5% Triton X-100 in PBS, 0.5 mM phenylmethylsulfonyl fluoride, Complete protease inhibitor mixture (Roche Applied Sciences)). After incubating on ice for 30 minutes lysates were briefly sonicated. Equal amounts of protein were boiled for 5 minutes in 2× SDS-sample buffer, separated by 5-12% gradient SDS-PAGE and electrophoretically transferred to a polyvinylidene difluoride (PVDF) membrane (Millipore). The membranes were blocked in 5% skim milk in 0.05% Tween 20/Tris-buffered saline (TBST) and incubated with primary antibody (dilutions in accordance to manufacturer's recommendations) overnight at […]. […] Immunoreactive proteins were detected with enhanced chemiluminescence reagents (Amersham Biosciences). […]
# tNhtt-16Q = assay: Western blot of tNhtt-16Q levels in inducible Neuro2a cells; assay type: cell-based, human; conditions: inducible 16Q Neuro2a cells, transfection
# Description: as §2, with “(Invitrogen).” for “(Invitrogen). Neuro2a tNhtt-62Q-kikGR cell line was generated by transfecting Neuro2a/FRT/TR cells with the pFRT-HD62-KikGR and pOG44 (Invitrogen) constructs using Lipofectamine 2000 reagent and selected with 200 μg/ml hygromycin. The expression of the pFRT-tNhtt-62Q-KikGR was induced by 18 doxycycline treatment of the cells. For the photo-induced kikGR cleavage, cells were exposed to ˜400 nm wavelength for 5 minutes.”
# as §1
# [3] = system: polyQ inclusions in 150Q-nls Neuro2a cells (tNhtt-EGFP-150Q-nls); assay: ArrayScan quantification of polyQ inclusion formation in inducible 150Q-nls Neuro2a cells; assay type: cell-based, mouse
# Description: as §2
# (§5) For the quantification of the inclusions, cells were grown in 24-well plates for indicated periods, fixed in 4% paraformaldehyde, washed and incubated with Hoechst 33258 at 1/1000 dilution in PBS. Cells were analyzed by ArrayScan® V^TI High Content Screening (HSC) Reader (Cellomics) using Target Activation BioApplication (TABA). TABA analyzes images acquired by a HSC Reader and provides measurements of the intracellular fluorescence intensity and localization on a cell-by-cell basis.
# In each well, at least 10000 cells were counted and quantified for the presence of the inclusions. Nuclei stained with Hoechst 33285 provided the autofocus target and their count gave the exact number of the quantified cells. The screening itself consisted of two scans using Hoechst, FITC (for GFP) and TRITC (for RFP) fluorescence. Firstly, number of inclusions in transfected cells was calculated when fluorescent spots at size of at least 5 pixels (magnification 20× for cytoplasmic and 40× for nuclear aggregates) with average GFP intensity more than 1500 in the RFP background were counted. […] The percentage of the cells with aggregates was then calculated. When the constructs without mRFP were used for transfection, the procedure was same, except the RFP intensity was not measured. […] Data was generated from the quantification of more than 250,000 cells in each experimental set-up.
# tNhtt-150Q polyQ protein = molecular target: T3, tNhtt-150Q polyQ protein (Homo sapiens, UniProt P42858); assay: Chase experiment in 150Q Neuro2a cells (Western blot); assay type: cell-based
# T3 construct: N-terminal fragment of human huntington exon 1 (tNhtt); expressed in transfected cells
# T3 sequence (P42858 with tags, fused parts or gaps): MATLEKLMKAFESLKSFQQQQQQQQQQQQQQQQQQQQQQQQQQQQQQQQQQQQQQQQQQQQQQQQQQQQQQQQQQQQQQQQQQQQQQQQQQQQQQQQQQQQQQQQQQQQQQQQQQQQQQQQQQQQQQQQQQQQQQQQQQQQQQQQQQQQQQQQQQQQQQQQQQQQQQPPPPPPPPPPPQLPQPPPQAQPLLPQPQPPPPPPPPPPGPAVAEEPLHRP
# Description: as §3, §4
# tNhtt-150Q = molecular target: T4, tNhtt-150Q (Homo sapiens, UniProt P42858); assay: Western blot of polyQ aggregation (gel top) in 150Q Neuro2a cells; assay type: cell-based; conditions: expression of mRFP-tagged constructs
# T4 construct: N-terminal fragment of human huntington exon 1 (tNhtt); expressed in transfected cells
# T4 sequence (P42858 with tags, fused parts or gaps): as above
# Description: as §2, with “(Invitrogen).” for “(Invitrogen). Neuro2a tNhtt-62Q-kikGR cell line was generated by transfecting Neuro2a/FRT/TR cells with the pFRT-HD62-KikGR and pOG44 (Invitrogen) constructs using Lipofectamine 2000 reagent and selected with 200 μg/ml hygromycin. The expression of the pFRT-tNhtt-62Q-KikGR was induced by 18 doxycycline treatment of the cells. For the photo-induced kikGR cleavage, cells were exposed to ˜400 nm wavelength for 5 minutes.”
# as §1
# [4] = system: polyQ inclusions in 150Q Neuro2a cells (tNhtt-EGFP-150Q); assay: ArrayScan quantification of polyQ inclusion formation in inducible 150Q Neuro2a cells; assay type: cell-based, mouse
# Description: Mouse neuroblastoma (Neuro2a) cells were maintained in Dulbecco's modified Eagle's medium (Sigma) supplemented with 10% heat-inactivated fetal bovine serum (Sigma), 100 U/ml penicillin and 100 μg/ml streptomycin (Invitrogen) at 37° C. in an atmosphere containing 5% CO2 and 95% air. Establishment of stable Neuro2a cell lines with the ecdysone-inducible mammalian expression system (Invitrogen), that express tNhtt-EGFP-16Q (16Q Neuro2a cells), tNhtt-EGFP-150Q (150Q Neuro2a cells) and tNhtt-EGFP-150Q-nls (150Q-nls Neuro2a cells) has been described earlier (T. Nagai et al., supra, H. Doi et al., supra, E. A. Zemskov et al., J Neurochem. 87, 2 (2003)). Neuro2a cells were differentiated with 5mM dbcAMP (N^6, 2′-O-dibutyryladenosine-3′,5′-cyclic monophosphate sodium salt) (Nacalai Tesque) and induced to express tNhtt-polyQ with 2 μM ponasterone A (ponA; Invitrogen) for indicated times. Neuro2a/FRT/TR cell line was generated as described in the protocol for Flp-in/T-Rex system (Invitrogen). Neuro2a tNhtt-62Q-kikGR cell line was generated by transfecting Neuro2a/FRT/TR cells with the pFRT-HD62-KikGR and pOG44 (Invitrogen) constructs using Lipofectamine 2000 reagent and selected with 200 μg/ml hygromycin. The expression of the pFRT-tNhtt-62Q-KikGR was induced by 18 doxycycline treatment of the cells. For the photo-induced kikGR cleavage, cells were exposed to ˜400 nm wavelength for 5 minutes. Rat pheochromocytoma (PC12) cells were grown in the same conditions as Neuro2a cells, except for the serum composition of 5% of fetal bovine and 10% of horse serum (Sigma). All transient transfections were performed with Lipofectamine 2000 (Invitrogen) according to the manufacturer's instruction.
# as §5
# In each well, at least 10000 cells were counted and quantified for the presence of the inclusions. Nuclei stained with Hoechst 33285 provided the autofocus target and their count gave the exact number of the quantified cells. The screening itself consisted of two scans using Hoechst, FITC (for GFP) and TRITC (for RFP) fluorescence. Firstly, number of inclusions in transfected cells was calculated when fluorescent spots at size of at least 5 pixels (magnification 20× for cytoplasmic and 40× for nuclear aggregates) with average GFP intensity more than 1500 in the RFP background were counted. Secondly, nuclei were defined as the objects of interest and the cells with average intensity more than 50 within 3 pixels from the nucleus were selected for the analysis. The percentage of the cells with aggregates was then calculated. When the constructs without mRFP were used for transfection, the procedure was same, except the RFP intensity was not measured. Scanning was performed with triplicate or quadruplicate in each experimental condition. Data was generated from the quantification of more than 250,000 cells in each experimental set-up.
# 150Q Neuro2a cells = assay: Cell death assay (propidium iodide uptake) in 150Q Neuro2a cells; assay type: cell-based, mouse; conditions: after 60 hours of induction
# Description: as §2, with “(Invitrogen).” for “(Invitrogen). Neuro2a tNhtt-62Q-kikGR cell line was generated by transfecting Neuro2a/FRT/TR cells with the pFRT-HD62-KikGR and pOG44 (Invitrogen) constructs using Lipofectamine 2000 reagent and selected with 200 μg/ml hygromycin. The expression of the pFRT-tNhtt-62Q-KikGR was induced by 18 doxycycline treatment of the cells. For the photo-induced kikGR cleavage, cells were exposed to ˜400 nm wavelength for 5 minutes.”
# (§6) For quantification of cell death, 5 μg/ml each of Hoechst 33342 and propidium iodide (PI) were added to differentiated and induced Neuro2a cells transiently transfected with either of the tested constructs (FIG. 6A). After 10 minutes at 37° C., the number of cells with PI uptake over the total number of cells was calculated by ArrayScan.
# 150Q-nls Neuro2a cells = assay: Cell death assay (propidium iodide uptake) in 150Q-nls Neuro2a cells; assay type: cell-based, mouse; conditions: after 48 hours of induction
# Description: as §2, with “(Invitrogen).” for “(Invitrogen). Neuro2a tNhtt-62Q-kikGR cell line was generated by transfecting Neuro2a/FRT/TR cells with the pFRT-HD62-KikGR and pOG44 (Invitrogen) constructs using Lipofectamine 2000 reagent and selected with 200 μg/ml hygromycin. The expression of the pFRT-tNhtt-62Q-KikGR was induced by 18 doxycycline treatment of the cells. For the photo-induced kikGR cleavage, cells were exposed to ˜400 nm wavelength for 5 minutes.”
# as §6
Substance,decrease of full length (constitutively expressed) tNhtt-62Q-kikGR as compared to RQ (tNhtt-62Q-kikGR protein) [%],decrease of levels of the cleaved form of tNhtt-62Q-kikGR protein as compared to RQ (tNhtt-62Q-kikGR protein) [%],localization relative to polyQ inclusions [1],enhancement of degradation of soluble tNhtt-60Q protein as compared to R [2] [%],enhancement of degradation of soluble tNhtt-60Q protein as compared with RQ [2] [%],levels of tNhtt-16Q (tNhtt-16Q),"decrease of the polyQ inclusion formation ([3]; 150Qnls Neuro2a cells, mRFP-tagged constructs, after 48 hours of differentiation and induction) [%]",clearance of aggregated and soluble polyQ (tNhtt-150Q polyQ protein; autophagy activation by serum withdrawal),degradation of the polyQ protein (tNhtt-150Q polyQ protein; chase 24 hours),polyQ aggregation (gel top) (tNhtt-150Q),effect on polyQ aggregation after silencing of HSC70 and/or Lamp2a with shRNA ([4]; any knock-down combination),"decrease of inclusion formation ([4]; mRFP-tagged constructs, after 24 hours of differentiation and induction) [%]",decrease of the percentage of PI-positive cells (150Q Neuro2a cells) [%],decrease of the percentage of PI-positive cells (150Q-nls Neuro2a cells) [%],"reduction of aggregation compared to control counterparts (S and HS) ([3]; 150Q-nls Neuro2a cells, constructs without mRFP, 48 hours after induction) [%]","decrease of aggregation compared to control counterparts (S and HS) ([4]; constructs without mRFP, induced and differentiated for 24 hours) [%]"
mRFP-HSC70bm-(QBP1)2 (MARVKKDQAEPLHRKFERQPPGSNWKWWPGIFDSNWKWWPGIFD; also: fused to mRFP) [RHQ],24,45.6,co-localized with the polyQ inclusions,43,37.4,not affected,48.5,almost complete clearance,enhanced degradation,much stronger effect; also recorded: markedly decreased,inhibited,56.5,–,–,–,–
(QBP1)2 (MSNWKWWPGIFDSNWKWWPGIFD) [reference compound],–,–,–,–,–,–,–,–,–,–,–,–,12.3,17.7,24.7,32.6
